Results as given in patent US20160304466A1, “NOVEL COMPOUNDS AS JNK KINASE INHIBITORS” (THE SCRIPPS RESEARCH INSTITUTE, priority 2013, published 2016).
pEC50: −log10 of the molar value.

Legend:
JNK2α2/SAPK1c, active = JNK2α2/SAPK1c, active (Homo sapiens, UniProt P45984); test: Biochemical inhibition of JNK2; details: Table 1, compounds of formula (I); mean of n repeats
Protocol: A 10 point titration of all compounds was carried out in 3-fold dilutions from 10 pM-2000 nM. After 22 min, the kinase reaction was terminated by addition of 10 μl of quenching solution [50 mM Hepes, pH 7.0, with 14 mM EDTA, 0.01% Triton X-100, 400 mM KF (all from Sigma-Aldrich)]. The detection reagents, streptavidin-x1APC (200 nM) and europium cryptate-labeled rabbit polyclonal anti-phospho-ATF2 (1 nM), were from Cis-Bio. The HTRF signal was detected using an Envision plate reader (Perkin Elmer) 1 h post-quenching. The data from multiple different experiments were averaged and presented as the mean±standard deviation.

[1] = biological target: JNK3/SAPK1b, Active (activated JNK3α1) (Homo sapiens, UniProt P53779); test: Biochemical inhibition of JNK3 (HTRF enzyme inhibition assay); details: for pEC50: Table 1, compounds of formula (I), mean of n repeats; for IC50: Table 2, compounds of formula (II), read-out: JNK3 (nM) JNK activity (IC50)
Sequence of JNK3/SAPK1b, Active (activated JNK3α1) (P53779 1-422 isoform P53779-2): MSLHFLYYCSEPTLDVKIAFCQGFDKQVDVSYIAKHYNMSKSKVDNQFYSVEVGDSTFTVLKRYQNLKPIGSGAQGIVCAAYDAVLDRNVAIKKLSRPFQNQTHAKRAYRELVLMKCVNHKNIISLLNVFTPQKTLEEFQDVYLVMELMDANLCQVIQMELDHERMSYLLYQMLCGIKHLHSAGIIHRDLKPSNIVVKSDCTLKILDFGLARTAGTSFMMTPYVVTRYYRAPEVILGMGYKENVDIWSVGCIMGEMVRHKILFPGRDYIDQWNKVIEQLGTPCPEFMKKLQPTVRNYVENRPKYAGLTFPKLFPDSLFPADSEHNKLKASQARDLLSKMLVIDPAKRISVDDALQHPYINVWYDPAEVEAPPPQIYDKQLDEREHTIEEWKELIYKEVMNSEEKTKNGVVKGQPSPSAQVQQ
Protocol: Enzyme inhibition studies were performed in 384-well polystyrene HTRF plates (Grainier) for 22 min at ambient temperature (˜22° C.) with 0.2 μM biotinylated FL-ATF2, 1 μM ATP, 0.75 nM activated JNK3α1 (with a control in the absence of kinase for determining the basal signal) in 10 μL volumes containing the final concentrations of the following: 50 mM Hepes, pH 7.0, 2.5 mM MgCl2, 0.1 mg/ml bovine serum albumin, 1 mM DL-dithiothreitol, 0.01% Triton X-100 (all from Sigma-Aldrich), and 5% DMSO (with or without compound). A 10 point titration of all compounds was carried out in 3-fold dilutions from 10 pM-2000 nM. After 22 min, the kinase reaction was terminated by addition of 10 μl of quenching solution [50 mM Hepes, pH 7.0, with 14 mM EDTA, 0.01% Triton X-100, 400 mM KF (all from Sigma-Aldrich)]. The detection reagents, streptavidin-x1APC (200 nM) and europium cryptate-labeled rabbit polyclonal anti-phospho-ATF2 (1 nM), were from Cis-Bio. The HTRF signal was detected using an Envision plate reader (Perkin Elmer) 1 h post-quenching. The data from multiple different experiments were averaged and presented as the mean±standard deviation. IC50 values were determined by fitting the data to the equation for a four-parameter logistic. p38 enzyme inhibition assays were performed identically to the JNK3 assays with the exception that the reaction time was […], 0.5 μM biotinylated FL-ATF2, ATP=11 μM, and p38 (Millipore)=3 nM.

JNK1α1/SAP1α, Active = JNK1α1/SAP1α, Active (Homo sapiens, UniProt P45983); test: Biochemical inhibition of JNK1; details: for pEC50: Table 1, compounds of formula (I), mean of n repeats; for IC50: Table 2, compounds of formula (II), read-out: JNK1 (nM) JNK activity (IC50)
Sequence of JNK1α1/SAP1α, Active (P45983 1-384 isoform P45983-2): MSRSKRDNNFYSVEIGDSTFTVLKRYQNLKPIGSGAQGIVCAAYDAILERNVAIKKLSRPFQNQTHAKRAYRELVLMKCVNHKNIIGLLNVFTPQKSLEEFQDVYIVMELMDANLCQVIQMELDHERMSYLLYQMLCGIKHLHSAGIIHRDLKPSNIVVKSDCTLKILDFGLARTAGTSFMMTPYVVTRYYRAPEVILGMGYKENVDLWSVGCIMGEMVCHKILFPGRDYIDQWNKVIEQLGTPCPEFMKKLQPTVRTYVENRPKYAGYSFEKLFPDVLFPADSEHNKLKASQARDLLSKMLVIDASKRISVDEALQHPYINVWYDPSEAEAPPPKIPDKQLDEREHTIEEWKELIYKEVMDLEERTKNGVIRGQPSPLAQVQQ

Sequence of JNK2α2/SAPK1c, active (P45984 whole entry): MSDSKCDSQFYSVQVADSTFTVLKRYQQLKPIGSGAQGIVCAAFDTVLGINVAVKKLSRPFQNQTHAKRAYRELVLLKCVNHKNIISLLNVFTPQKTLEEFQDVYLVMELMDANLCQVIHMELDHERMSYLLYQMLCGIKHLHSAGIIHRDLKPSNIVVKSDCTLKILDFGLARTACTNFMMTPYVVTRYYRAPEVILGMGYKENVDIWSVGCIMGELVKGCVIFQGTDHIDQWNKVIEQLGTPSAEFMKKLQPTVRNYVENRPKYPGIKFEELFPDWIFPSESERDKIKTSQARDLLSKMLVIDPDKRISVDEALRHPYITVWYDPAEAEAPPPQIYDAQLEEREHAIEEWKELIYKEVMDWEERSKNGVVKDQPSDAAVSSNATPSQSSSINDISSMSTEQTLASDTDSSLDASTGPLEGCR

Compound | pEC50 (JNK2α2/SAPK1c, active) | pEC50 [1] | pEC50 (JNK1α1/SAP1α, Active) | IC50 [1] [nM] | IC50 (JNK1α1/SAP1α, Active) [nM]
Cc1ccc(CNC(=O)c2cccc(-n3cc(NC(=O)Nc4ccccc4Cl)cn3)c2)cn1 [Example I-9, 3-(4-(3-(2-chlorophenyl)ureido)-1H-pyrazol-1-yl)-N-((6-methylpyridin-3-yl)methyl)benzamide] | 6.00 to 6.70 | 6.00 to 6.70 | < 6.00 | – | –
Cc1cc(NC(=O)c2cccc(-n3cc(NC(=O)Nc4ccccc4Cl)cn3)c2)ccn1 [Example I-10, 3-(4-(3-(2-chlorophenyl)ureido)-1H-pyrazol-1-yl)-N-(2-methylpyridin-4-yl)benzamide] | > 6.70 | > 6.70 | < 6.00 | – | –
Cc1cccc(CNC(=O)c2cccc(-n3cc(NC(=O)Nc4ccccc4Cl)cn3)c2)n1 [Example I-11, 3-(4-(3-(2-chlorophenyl)ureido)-1H-pyrazol-1-yl)-N-((6-methylpyridin-2-yl)methyl)benzamide] | 6.00 to 6.70 | 6.00 to 6.70 | < 6.00 | – | –
Cc1cc(NC(=O)c2cccc(-n3cc(NC(=O)Nc4ccccc4Cl)cn3)c2)cc(C)n1 [Example I-22, 3-(4-(3-(2-chlorophenyl)ureido)-1H-pyrazol-1-yl)-N-(2,6-dimethylpyridin-4-yl)benzamide] | 6.00 to 6.70 | > 6.70 | < 6.00 | – | –
Cc1cc(NC(=O)c2cccc(-n3cc(NC(=O)Nc4ccccc4C)cn3)c2)ccn1 [Example I-51, N-(2-methylpyridin-4-yl)-3-(4-(3-(o-tolyl)ureido)-1H-pyrazol-1-yl)benzamide] | > 6.70 | > 6.70 | 6.00 to 6.70 | – | –
CC(C)n1cc(NC(=O)c2cccc(-n3cc(NC(=O)Nc4ccccc4Cl)cn3)c2)cn1 [Example I-86, 3-(4-(3-(2-chlorophenyl)ureido)-1H-pyrazol-1-yl)-N-(1-isopropyl-1H-pyrazol-4-yl)benzamide] | 6.00 to 6.70 | > 6.70 | < 6.00 | – | –
Cn1nc(C2CC2)cc1NC(=O)c1cccc(-n2cc(NC(=O)Nc3ccccc3Cl)cn2)c1 [Example I-89, 3-(4-(3-(2-chlorophenyl)ureido)-1H-pyrazol-1-yl)-N-(3-cyclopropyl-1-methyl-1 H-pyrazol-5-yl)benzamide] | > 6.70 | > 6.70 | < 6.00 | – | –
Cn1ccc(NC(=O)c2cccc(-n3cc(NC(=O)Nc4ccccc4Cl)cn3)c2)n1 [Example I-98, 3-(4-(3-(2-chlorophenyl)ureido)-1H-pyrazol-1-yl)-N-(1-methyl-1H-pyrazol-3-yl)benzamide] | > 6.70 | > 6.70 | 6.00 to 6.70 | – | –
O=C(Nc1cnn(-c2cccc(C(=O)Nc3cnn(CCN4CCCC4)c3)c2)c1)Nc1ccccc1Cl [Example I-101, 3-(4-(3-(2-chlorophenyl)ureido)-1H-pyrazol-1-yl)-N-(1-(2-(pyrrolidin-1-yl)ethyl)-1H-pyrazol-4-yl)benzamide] | > 6.70 | > 6.70 | < 6.00 | – | –
Cc1nn(CCN2CCCC2)cc1NC(=O)c1cccc(-n2cc(NC(=O)Nc3ccccc3Cl)cn2)c1 [Example I-104, 3-(4-(3-(2-chlorophenyl)ureido)-1H-pyrazol-1-yl)-N-(3-methyl-1-(2-(pyrrolidin-1-yl)ethyl)-1H-pyrazol-4-yl)benzamide] | > 6.70 | > 6.70 | < 6.00 | – | –

Results, then the compound that gave them:

pEC50 (JNK2α2/SAPK1c, active) | pEC50 [1] | pEC50 (JNK1α1/SAP1α, Active) | IC50 [1] [nM] | IC50 (JNK1α1/SAP1α, Active) [nM] | Compound
– | – | – | > 1000 | 200 to 1000 | CC(C)n1c(=O)ccc2cnc(NC3CCN(Cc4ccccc4)CC3)nc21 [Example II-6, 2-(1-Benzyl-piperidin-4-ylamino)-8-isopropyl-8H-pyrido[2,3-d]pyrimidin-7-one]
– | – | – | < 200 | < 200 | O=c1ccc2cnc(N[C@H]3CC[C@H](O)CC3)nc2n1C1CCCC1 [Example II-20, Trans-8-Cyclopentyl-2-(4-hydroxy-cyclohexylamino)-8H-pyrido[2,3-d]pyrimidin-7-one]
– | – | – | 200 to 1000 | 200 to 1000 | CC(C)NC(=O)N1CCC(Nc2ncc3ccc(=O)n(C4CCCC4)c3n2)CC1 [Example II-21, 4-(8-Cyclopentyl-7-oxo-7,8-dihydro-pyrido[2,3-d]pyrimidin-2-ylamino)-piperidine-1-carboxylic acid isopropylamide]
– | – | – | 200 to 1000 | 200 to 1000 | O=C(NC1CCCC1)N[C@H]1CC[C@H](Nc2ncc3ccc(=O)[nH]c3n2)CC1 [Example II-28]
– | – | – | < 200 | < 200 | Cn1c(=O)ccc2cnc(N[C@H]3CC[C@H](O)CC3)nc21 [Example II-29, Trans 2-((4-hydroxycyclohexyl)amino)-8-methylpyrido[2,3-d]pyrimidin-7(8H)-one]
– | – | – | – | > 1000 | c1cc2cnc(NC3CCNCC3)nc2nc1C1CC1 [Example II-40, 7-cyclopropyl-N-(piperidin-4-yl)pyrido[2,3-d]pyrimidin-2-amine]
– | – | – | – | > 1000 | CCNC(=O)N1CCC(Nc2ncc3ccc(C4CC4)nc3n2)CC1 [Example II-42, 4-((7-cyclopropylpyrido[2,3-d]pyrimidin-2-yl)amino)-N-ethylpiperidine-1-carboxamide]
– | – | – | – | > 1000 | c1cc2cnc(NC3CCNCC3)nc2nc1N1CCCC1 [Example II-49, N-(piperidin-4-yl)-7-(pyrrolidin-1-yl)pyrido[2,3-d]pyrimidin-2-amine]
6.00 to 6.70 | – | – | – | – | Cc1ccc(-c2ncn(-c3ccc(Nc4nccc(-c5cccc(N6CCOCC6)c5)n4)cc3)n2)cn1 [SR-3306, reference compound]
